Measured values published in PMC6269769, “Novel Conformationally Constrained Analogues of Agomelatine as New Melatoninergic Ligands” (Molecules, 2012).
Structures can show the parent of a compound that is named as a salt.

Columns and labels:
[1] = biological target: T1, human melatonin MT2 receptor (Homo sapiens, UniProt P49286); experiment: […]-[…]iodomelatonin displacement, CHO membranes; type: binding
T1 construct: gene MTNR1B; receptor stably expressed in transfected CHO cells, membrane preparation
T1 sequence (P49286 1-362): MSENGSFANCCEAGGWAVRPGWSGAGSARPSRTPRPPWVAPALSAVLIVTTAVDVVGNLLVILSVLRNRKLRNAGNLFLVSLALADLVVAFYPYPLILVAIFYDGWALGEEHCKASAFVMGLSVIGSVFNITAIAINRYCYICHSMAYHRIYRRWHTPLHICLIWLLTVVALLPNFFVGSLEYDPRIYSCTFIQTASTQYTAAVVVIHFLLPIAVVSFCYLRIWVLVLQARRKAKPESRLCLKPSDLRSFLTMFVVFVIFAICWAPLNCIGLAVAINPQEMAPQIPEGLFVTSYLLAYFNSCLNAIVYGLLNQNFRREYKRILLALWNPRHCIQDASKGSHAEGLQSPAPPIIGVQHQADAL

[2] = biological target: T2, human melatonin MT1 receptor (Homo sapiens, UniProt P48039); experiment: […]-[…]iodomelatonin displacement, CHO membranes; type: binding
T2 construct: gene MTNR1A; receptor stably expressed in transfected CHO cells, membrane preparation
T2 sequence (P48039 whole entry): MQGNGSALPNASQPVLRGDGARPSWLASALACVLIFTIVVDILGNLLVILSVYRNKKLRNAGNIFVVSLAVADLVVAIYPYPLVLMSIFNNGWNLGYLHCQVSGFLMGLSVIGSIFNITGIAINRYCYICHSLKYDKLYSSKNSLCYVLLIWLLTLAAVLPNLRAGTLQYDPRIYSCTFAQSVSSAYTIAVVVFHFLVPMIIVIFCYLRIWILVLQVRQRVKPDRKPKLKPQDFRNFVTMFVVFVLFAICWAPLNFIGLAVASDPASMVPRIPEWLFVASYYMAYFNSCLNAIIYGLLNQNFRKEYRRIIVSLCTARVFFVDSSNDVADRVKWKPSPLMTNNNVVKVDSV

| Compound | Ki [1] | Ki [2] |
| --- | --- | --- |
| COc1ccc2cccc(CCN3CCOC3=O)c2c1 [7a] | 6 ± 0.2 nM | 113 ± 18 nM |
| COc1ccc2cccc(CCN3CCCC3=O)c2c1 [7b] | 2.1 ± 0.01 nM | 68.5 ± 18.2 nM |
| COc1ccc2cccc3c2c1CN(C(C)=O)CC3 [9a, 1-(10-Methoxy-1,2,3,4-tetrahydro-naphto[1,8-cd]azepin-2-yl)ethanone] | 469 ± 44 nM | 2500 ± 57 nM |
| COc1ccc2ccc3c(c2c1)CCN(C(C)=O)C3 [9b, 1-(9-Methoxy-1,2,3,4-tetrahydro-benzo[f]isoquinolein-3-yl)ethanone] | 800 ± 59 nM | 3000 ± 27 nM |
| COc1ccc2cccc(CC3=NOS(=O)N3)c2c1 (stereo not shown) [compound 3, 4-[(7-Methoxynaphth-1-yl)methyl]-3H-1,2,3,5-oxathiadiazole 2-oxide] | 1300 nM | > 1000 nM |
| COc1ccc2cccc(Cc3noc(=O)[nH]3)c2c1 [compound 4, 3-[(7-Methoxynaphth-1-yl)methyl]-1,2,4-oxadiazole-5(4H)-one] | 25.2 ± 10.7 nM | 80 ± 16 nM |
| COc1ccc2cccc(Cc3nn[nH]n3)c2c1 [compound 5, 5-(7-Methoxynaphth-1-ylmethyl)-1H-tetrazole] | 190 ± 84 nM | 380 ± 114 nM |
| COc1ccc2cccc(CC3NC(=O)NC3=O)c2c1 (stereo not shown) [compound 12, 5-[(7-Methoxynaphth-1-yl)methyl]-imidazolidin-2,4-diones] | 141 ± 31 nM | 2170 ± 63 nM |
| COc1ccc2cccc(CCNc3nccs3)c2c1 [compound 13, 2-[2-(7-Methoxynaphth-1-yl)]-ethylamino]-1,3-thiazole hydrochloride] | 12.5 ± 0.4 nM | 33.9 ± 8.1 nM |
| COc1ccc2cccc(CCNc3ncc(C)s3)c2c1 [compound 14, 2-[2-(7-Methoxynaphth-1-yl)ethylamino]-5-methyl-1,3-thiazole] | 354 ± 32 nM | 389 ± 121 nM |
| COc1ccc2cccc(CCNc3cc(C)on3)c2c1 [compound 15, 3-[2-(7-Methoxynaphth-1-yl)ethylamino]-5-methyl-1,2-isoxazole hydrochloride] | 20.3 ± 3.9 nM | 48.4 ± 11.2 nM |
